Values joined by “and” are separate entries in the source; they are usually repeats but may differ in a detail not shown here. Equal values may be shown once.
Assay: Plasma pharmacokinetics after oral multi-dose anatabine polacrilex
Assay type: in vivo, Sprague-Dawley rats
Conditions: for Anatabine Concentration in rat plasma: dose 0.2 mg/kg, male, individual animals
Procedure: This study consisted of two groups of 8 animals each, 4 males and 4 females.
The vehicle was sterile phosphate buffered saline (PBS) (Amresco). […] Two formulations were prepared; one for each of the two treatment groups. The test compound was formulated for each treatment group just prior to the first dose administration and constantly stirred until dosing was completed (Table 37). Four aliquots of each dose level formulation were collected and stored at −80° C.
The animals were weighed prior to dosing and received three doses p.o. of test compound at a volume of 5 mL/kg. Blood was collected via the venus plexus (retro-orbital) into tubes containing (K2) EDTA. No more than 0.5 mL was collected per time point.
Sample preparation. Plasma samples were treated with three volumes of methanol containing internal standard at 1 μM (R,S)-Antabine-2,4,5,6-d4), incubated 10 min at 4° C., and centrifuged. The amount of the test agent in the supernatant was determined by LC/MS/MS.
Analysis. Samples were analyzed by LC/MS/MS using an Agilent 6410 mass spectrometer coupled with an Agilent 1200 high pressure liquid chromatography (HPLC) and a CTC PAL chilled autosampler, all controlled by MassHunter software (Agilent). After separation on a Hydrophilic interaction liquid chromatography (HILIC) HPLC column (Sepax) using an acetonitrile-ammonium acetate/acetic acid gradient system, peaks were analyzed by mass spectrometry (MS) using ESI ionization in multiple reaction monitoring (MRM) mode. MassHunter software was used to calculate the concentration of the test compounds in samples from the peak area using the appropriate calibration curves.
Descriptive statistics were calculated for all pharmacokinetic parameters. Elimination half-lives (t1/2) were calculated by linear regression of logarithmically transformed plasma concentration data for each period between doses and following the final dose.
Total areas under the plasma concentration curves (AUC) and under the first moment curves (AUMC) were calculated using linear trapezoidal summation across all concentration time points as well as for intervals between each dose administration and following the final dose. […] Mean absorption times (MAT) were calculated according to the following relation: […]

[1] = Anatabine 0.6 mg/kg, female rats, mean
[2] = Anatabine 0.6 mg/kg, male and female combined, mean
[3] = Anatabine 0.6 mg/kg, male rats, mean
[4] = Anatabine 6.0 mg/kg, female rats, mean
[5] = Anatabine 6.0 mg/kg, male and female combined, mean
[6] = Anatabine 6.0 mg/kg, male rats, mean
[7] = all data combined (overall), mean
[8] = both treatment groups combined, female rats, mean
[9] = females, 6.0 mg/kg BW group (3 x 2.0 mg/kg p.o.)

C1=CCC(c2cccnc2)NC1 (racemic) [Anatabine, 1,2,3,6-tetrahydro-[2,3′]bipyridinyl]
AUC0→∞ [1]: 290 ng·h/mL
MAT0→4 (mean absorption time) [1]: 0.53 h
t1/2, 0→4 (elimination half-life after first dose) [1]: 2.06 h
t1/2, terminal [1]: 1.80 h
MAT0→4 (mean absorption time) [2]: 0.61 h
MTT0→4 (mean transit time) [2]: 3.06 h
AUC0→∞ [3]: 280 ng·h/mL
MAT0→4 (mean absorption time) [3]: 0.71 h
t1/2, terminal [3]: 1.78 h
Cp, max (1) (Anatabine 6.0 mg/kg, female rats, after dose 1, mean): 260 ng/mL
MAT0→4 (mean absorption time) [4]: 0.30 h
t1/2, 0→4 (elimination half-life after first dose) [4]: 1.82 h
MAT0→4 (mean absorption time) [5]: 0.52 h
MTT0→4 (mean transit time) [5]: 2.97 h
MAT0→4 (mean absorption time) [6]: 0.73 h
t1/2, 0→4 (elimination half-life after first dose) [6]: 1.76 h
concentration at 30 min (Sprague-Dawley, rat, plasma, oral, 2 mg/kg BW, dose group 2, female, 30 min, mean): 160 ng/mL
concentration at 60 min (Sprague-Dawley, rat, plasma, oral, 2 mg/kg BW, dose group 2, female, 60 min, mean): 129 ng/mL
concentration at 235 min (Sprague-Dawley, rat, plasma, oral, 2 mg/kg BW, dose group 2, female, 235 min, mean): 44 ng/mL
concentration at 270 min (Sprague-Dawley, rat, plasma, oral, 2 mg/kg BW, dose group 2, female, 270 min, mean): 316 ng/mL
concentration at 300 min (Sprague-Dawley, rat, plasma, oral, 2 mg/kg BW, dose group 2, female, 300 min, mean): 234 ng/mL
concentration at 475 min (Sprague-Dawley, rat, plasma, oral, 2 mg/kg BW, dose group 2, female, 475 min, mean): 192 ng/mL
concentration at 540 min (Sprague-Dawley, rat, plasma, oral, 2 mg/kg BW, dose group 2, female, 540 min, mean): 386 ng/mL
concentration at 600 min (Sprague-Dawley, rat, plasma, oral, 2 mg/kg BW, dose group 2, female, 600 min, mean): 325 ng/mL
concentration at 720 min (Sprague-Dawley, rat, plasma, oral, 2 mg/kg BW, dose group 2, female, 720 min, mean): 208 ng/mL
MAT0→4 (mean absorption time) [7]: 0.56 h
MTT0→4 (mean transit time) [7]: 3.01 h
t1/2, 0→4 (elimination half-life after first dose) [7]: 1.93 h
MAT0→4 (mean absorption time) [8]: 0.42 h
MTT0→4 (mean transit time) [8]: 2.87 h
t1/2, 0→4 (elimination half-life after first dose) [8]: 1.94 h
MAT0→4 (mean absorption time) (both treatment groups combined, male rats, mean): 0.72 h
Anatabine Concentration in rat plasma (30 min): <LOQ
Anatabine Concentration in rat plasma (235 min): <LOQ
Anatabine Concentration in rat plasma (475 min): <LOQ
Anatabine Concentration in rat plasma (600 min): <LOQ
Anatabine Concentration in rat plasma (720 min): <LOQ
Avg. Conc. of Anatabine in plasma (dose group 0.2, combined male and female, 30 min, mean): 36 ng/mL
Avg. Conc. of Anatabine in plasma (dose group 0.2, combined male and female, 60 min, mean): 31 ng/mL
Avg. Conc. of Anatabine in plasma (dose group 0.2, combined male and female, 235 min, mean): 10 ng/mL
Avg. Conc. of Anatabine in plasma (dose group 0.2, combined male and female, 270 min, mean): 26 ng/mL
Avg. Conc. of Anatabine in plasma (dose group 0.2, combined male and female, 300 min, mean): 27 ng/mL
Avg. Conc. of Anatabine in plasma (dose group 0.2, combined male and female, 475 min, mean): 11 ng/mL
Avg. Conc. of Anatabine in plasma (dose group 0.2, combined male and female, 540 min, mean): 30 ng/mL
Avg. Conc. of Anatabine in plasma (dose group 0.2, combined male and female, 600 min, mean): 26 ng/mL
Avg. Conc. of Anatabine in plasma (dose group 0.2, combined male and female, 720 min, mean): 13 ng/mL
Avg. Conc. of Anatabine in plasma (dose group 0.2, female, 30 min, mean): 37 ng/mL
Avg. Conc. of Anatabine in plasma (dose group 0.2, female, 60 min, mean): 35 ng/mL
Avg. Conc. of Anatabine in plasma (dose group 0.2, female, 235 min, mean): 12 ng/mL
Avg. Conc. of Anatabine in plasma (dose group 0.2, female, 270 min, mean): 26 ng/mL
Avg. Conc. of Anatabine in plasma (dose group 0.2, female, 300 min, mean): 34 ng/mL
Avg. Conc. of Anatabine in plasma (dose group 0.2, female, 475 min, mean): 8 ng/mL
Avg. Conc. of Anatabine in plasma (dose group 0.2, female, 540 min, mean): 34 ng/mL
Avg. Conc. of Anatabine in plasma (dose group 0.2, female, 600 min, mean): 28 ng/mL
Avg. Conc. of Anatabine in plasma (dose group 0.2, female, 720 min, mean): 12 ng/mL
Avg. Conc. of Anatabine in plasma (dose group 0.2, male, 30 min, mean): 33 ng/mL
Avg. Conc. of Anatabine in plasma (dose group 0.2, male, 60 min, mean): 30 ng/mL
Avg. Conc. of Anatabine in plasma (dose group 0.2, male, 235 min, mean): 11 ng/mL
Avg. Conc. of Anatabine in plasma (dose group 0.2, male, 270 min, mean): 26 ng/mL
Avg. Conc. of Anatabine in plasma (dose group 0.2, male, 300 min, mean): 26 ng/mL
Avg. Conc. of Anatabine in plasma (dose group 0.2, male, 475 min, mean): 18 ng/mL
Avg. Conc. of Anatabine in plasma (dose group 0.2, male, 540 min, mean): 38 ng/mL
Avg. Conc. of Anatabine in plasma (dose group 0.2, male, 600 min, mean): 29 ng/mL
Avg. Conc. of Anatabine in plasma (dose group 0.2, male, 720 min, mean): 12 ng/mL
Avg. Conc. of Anatabine in plasma (dose group 2, combined male and female, 30 min, mean): 201 ng/mL
Avg. Conc. of Anatabine in plasma (dose group 2, combined male and female, 60 min, mean): 139 ng/mL
Avg. Conc. of Anatabine in plasma (dose group 2, combined male and female, 235 min, mean): 63 ng/mL
Avg. Conc. of Anatabine in plasma (dose group 2, combined male and female, 300 min, mean): 222 ng/mL
Avg. Conc. of Anatabine in plasma (dose group 2, combined male and female, 600 min, mean): 237 ng/mL
Avg. Conc. of Anatabine in plasma (dose group 2, combined male and female, 720 min, mean): 194 ng/mL
Avg. Conc. of Anatabine in plasma (dose group 2, male, 30 min, mean): 243 ng/mL
Avg. Conc. of Anatabine in plasma (dose group 2, male, 60 min, mean): 165 ng/mL
Avg. Conc. of Anatabine in plasma (dose group 2, male, 235 min, mean): 72 ng/mL
Avg. Conc. of Anatabine in plasma (dose group 2, male, 270 min, mean): 303 ng/mL
Avg. Conc. of Anatabine in plasma (dose group 2, male, 300 min, mean): 183 ng/mL
Avg. Conc. of Anatabine in plasma (dose group 2, male, 475 min, mean): 97 ng/mL
Avg. Conc. of Anatabine in plasma (dose group 2, male, 540 min, mean): 226 ng/mL
Avg. Conc. of Anatabine in plasma (dose group 2, male, 600 min, mean): 151 ng/mL
Avg. Conc. of Anatabine in plasma (dose group 2, male, 720 min, mean): 203 ng/mL
Cp, max, final value [9]: 374.8 ± 122.9 ng/mL
Cp, max, initial value [9]: 259.8 ± 35.4 ng/mL
Cp, min(2) (females, 6.0 mg/kg BW group, 6 mg/kg): 180 ± 31 ng/mL and 180.0 ± 30.7 ng/mL

— patent US20160030407A1, “Method of Treating Inflammatory Lung Disease” (priority 2010, published 2016)
